# According to PubChem BioAssay AID1963867 (Molecular Pharmacology Branch, DTP, NCI, 2024):
# Test system: KRAS-mutant PDC tumor spheroid with HUVEC/MSC, viability
# Assay: Anticancer human tumor 327498-153-R-J2-PDC patient-derived uterine carcinosarcoma cell line growth inhibition [KRAS2]
# Details: for viability, T/C: stronger effect = lower value
# Excerpt: Multicellular complex tumor spheroid response to RAS pathway inhibitors in combination with a targeted agents in patient-derived cell lines with oncogenic KRAS variants from multiple cancer types
# A high-throughput screen of multi-cell type tumor spheroids was designed to identify active combinations of targeted small molecules and KRAS pathway inhibitors. Complex spheroids include a stromal component modeled by human endothelial cells (HUVEC) and fibroblasts modeled by human mesenchymal stem cells (MSCs). The concentration ranges selected for each drug and investigational agent were based upon clinically achievable concentrations if the clinical Cmax of the agent was known.
# Compounds. The drugs and investigational agents: BI-3406 (NSC825286), BAY-293 (NSC824723), batoprotafib (TNO155; NSC825523), sotorasib (AMG 510; NSC818433), MRTX1257 (NSC819558), elimusertib (BAY 1895344; NSC800525), molibresib (GSK525762; NSC774829), temuterkib (LY3214996; NSC803410), venetoclax (NSC766270), alisertib (NSC759677), olaparib (NSC753686), talazoparib (NSC767125), erdafitinib (NSC781556), ipatasertib (NSC767898), cabozantinib (NSC761068), nintedanib (NSC756659), abemaciclib (NSC768073), docetaxel (NSC628503), trametinib (NSC758246), and sapanisertib (NSC764658) were obtained from the National Cancer Institute (NCI) Developmental Therapeutics Program Chemical Repository. The FDA-approved anticancer drug set is available from the Developmental Therapeutics Program. […] The stock solutions were prepared in dimethyl sulfoxide (DMSO, Sigma-Aldrich, St. Louis, MO, cat. D2650) at 800-fold the tested concentration and stored at -70 degrees C prior to their use. All drugs and investigational agents were tested over a range starting from a high concentration at or near the clinical Cmax and decreasing in half-log increments. If the clinical Cmax for an agent had not been determined, the highest concentration tested was 10 microM.
# Cell Culture. All cells were maintained in an incubator at 37 degrees C and 5% CO2 with 95% humidity. The PDC lines were cultured according to standard operating procedures established by the NCI PDMR (https://pdmr.cancer.gov/sops/default.htm). Briefly, all PDCs were thawed and cultured in Matrigel-coated flasks prepared with a working solution of 1X Ham's F-12 nutrient mix, without supplementation (Invitrogen, Waltham, MA, cat. 11765054), 100 U/mL penicillin-streptomycin (Invitrogen, cat. 15140122), and 2.5% Matrigel (Corning Inc., Corning, NY, cat. 354248) for the first three passages. All PDCs were cultured in complete DMEM/F-12 media containing advanced DMEM/F-12 (Invitrogen, cat. 12634028), 4.9% defined fetal bovine serum, heat inactivated (HyClone Laboratories Inc., Logan, UT, cat. SH30070.03HI), 389 ng/mL hydrocortisone (Sigma-Aldrich, cat. H4001), 9.7 ng/mL human EGF recombinant protein (Invitrogen, cat. PHG0313), 23.4 microg/mL adenine (Sigma-Aldrich, cat. A2786), 97.3 U/mL penicillin-streptomycin (Invitrogen, cat. 15140122), 1.9 mM L-glutamine (Invitrogen, cat. 25030081), and 9.7 microM Y-27632 dihydrochloride (Tocris Bioscience, Bristol, United Kingdom, cat. 1254). The PDCs were cultured in complete DMEM/F12 media without 9.7 microM Y-27632 dihydrochloride for at least two passages prior to the screen. The established cell line HOP-62 was cultured in RPMI 1640 medium, HEPES (Invitrogen, cat. 22400105) with 10% defined fetal bovine serum (HyClone Laboratories Inc., cat. SH30070.03) and 2 mM L-glutamine (Invitrogen, cat. 25030081). The pooled donor HUVEC were cultured in endothelial cell growth medium 2 (PromoCell, Heidelberg, Germany, cat. C-22011) and the hMSC were cultured in mesenchymal stem cell growth medium 2 (PromoCell, cat. C-28009). For all experiments, HUVEC and hMSC were used at passages </=5, while the malignant cell lines were used at passages </=15. […]
# [1] = curve of first compound, second compound 0.0316 µM
# [2] = curve of first compound, second compound 0.1 µM
# [3] = curve of first compound, second compound 0.316 µM
# [4] = curve of first compound, second compound 1 µM
# [5] = curve of first compound, second compound 3.16 µM
# [6] = second compound 0.0316 µM, first compound 0.0316 µM
# [7] = second compound 0.0316 µM, first compound 0.1 µM
# [8] = second compound 0.0316 µM, first compound 0.316 µM
# [9] = second compound 0.0316 µM, first compound 1 µM
# [10] = second compound 0.0316 µM, first compound 3.16 µM
# [11] = second compound 0.1 µM, first compound 0.0316 µM
# [12] = second compound 0.1 µM, first compound 0.1 µM
# [13] = second compound 0.1 µM, first compound 0.316 µM
# [14] = second compound 0.1 µM, first compound 1 µM
# [15] = second compound 0.1 µM, first compound 3.16 µM
# [16] = second compound 0.316 µM, first compound 0.0316 µM
# [17] = second compound 0.316 µM, first compound 0.1 µM
# [18] = second compound 0.316 µM, first compound 0.316 µM
# [19] = second compound 0.316 µM, first compound 1 µM
# [20] = second compound 0.316 µM, first compound 3.16 µM
# [21] = second compound 1 µM, first compound 0.0316 µM
# [22] = second compound 1 µM, first compound 0.1 µM
# [23] = second compound 1 µM, first compound 0.316 µM
# [24] = second compound 1 µM, first compound 1 µM
# [25] = second compound 1 µM, first compound 3.16 µM
# [26] = second compound 3.16 µM, first compound 0.0316 µM
# [27] = second compound 3.16 µM, first compound 0.1 µM
# [28] = second compound 3.16 µM, first compound 0.316 µM
# [29] = second compound 3.16 µM, first compound 1 µM
# [30] = second compound 3.16 µM, first compound 3.16 µM
# [31] = curve of first compound, second compound 10 µM
# [32] = second compound 0.1 µM, first compound 10 µM
# [33] = second compound 0.316 µM, first compound 10 µM
# [34] = second compound 1 µM, first compound 10 µM
# [35] = second compound 3.16 µM, first compound 10 µM
# [36] = second compound 10 µM, first compound 0.0316 µM
# [37] = second compound 10 µM, first compound 0.1 µM
# [38] = second compound 10 µM, first compound 0.316 µM
# [39] = second compound 10 µM, first compound 1 µM
# [40] = second compound 10 µM, first compound 3.16 µM
# [41] = second compound 10 µM, first compound 10 µM
# 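Further: spheroids exposed to agents for seven days before reading.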
# 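Wherever viability, T/C is given: 100% = DMSO vehicle wells so lower means fewer viable cells.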
Structure (SMILES),IC50 [2] [nM],IC50 [3] [nM],IC50 [4] [nM],IC50 [5] [nM],"viability, T/C [11] [%]","viability, T/C [12] [%]","viability, T/C [13] [%]","viability, T/C [14] [%]","viability, T/C [15] [%]","viability, T/C [16] [%]","viability, T/C [17] [%]","viability, T/C [18] [%]","viability, T/C [19] [%]","viability, T/C [20] [%]","viability, T/C [21] [%]","viability, T/C [22] [%]","viability, T/C [23] [%]","viability, T/C [24] [%]","viability, T/C [25] [%]","viability, T/C [26] [%]",further results
CCN1CCN(Cc2ccc(Nc3ncc(F)c(-c4cc(F)c5nc(C)n(C(C)C)c5c4)n3)nc2)CC1,–,–,–,–,–,–,–,–,–,–,–,–,–,–,–,–,–,–,–,–,"viability, T/C (compound 0.00316 µM): 88.7% [middle of 5 runs]; viability, T/C (compound 0.01 µM): 81.7% [middle of 5 runs]; viability, T/C (compound 0.0316 µM): 65.9% [middle of 5 runs]; viability, T/C (compound 0.1 µM): 61% [middle of 5 runs]; viability, T/C (compound 0.316 µM): 59.6% [middle of 5 runs]; viability, T/C (compound 1 µM): 58.9% [middle of 5 runs]; IC50 (curve of compound): > 1000 nM"
CC(=O)OC12COC1CC(O)C1(C)C(=O)C(O)C3=C(C)C(OC(=O)C(O)C(NC(=O)OC(C)(C)C)c4ccccc4)CC(O)(C(OC(=O)c4ccccc4)C21)C3(C)C (configuration not stated) + C=CC(=O)N1CCN(c2nc(OCC3CCCN3C)nc3c2CCN(c2cccc4cccc(C)c24)C3)CC1CC#N,< 10,< 10,< 10,< 10,4.17,3.96,4.52,6.93,8.74,4.31,4.23,4.71,5.82,7.76,3.43,3.95,3.86,5.54,4.84,6.27,"IC50 [1]: < 10 nM; viability, T/C (second compound 0.0316 µM, first compound 0.01 µM): 6.75%; viability, T/C [6]: 5.33%; viability, T/C [7]: 6.51%; viability, T/C [8]: 6.19%; viability, T/C [9]: 7.48%; viability, T/C [10]: 10.1%; viability, T/C (second compound 0.1 µM, first compound 0.01 µM): 5.53%; viability, T/C (second compound 0.316 µM, first compound 0.01 µM): 4.9%; viability, T/C (second compound 1 µM, first compound 0.01 µM): 4.4%; viability, T/C (second compound 3.16 µM, first compound 0.01 µM): 7.35%; viability, T/C [27]: 5.84%; viability, T/C [28]: 6.15%; viability, T/C [29]: 7.24%; viability, T/C [30]: 10.6%"
COc1cc2nccc(Oc3ccc(NC(=O)C4(C(=O)Nc5ccc(F)cc5)CC4)cc3)c2cc1OC + COc1cc2nc(C)nc(NC(C)c3cc(N)cc(C(F)(F)F)c3)c2cc1OC1CCOC1,689,534,379,385,73.8,82.3,74.6,26.7,0.88,68.3,60.8,64.5,28.7,0.85,62.9,54,53.9,22.9,0.96,62.5,"IC50 [31]: < 31.6 nM; viability, T/C [32]: 87%; viability, T/C [33]: 68.5%; viability, T/C [34]: 63.1%; viability, T/C [27]: 57.3%; viability, T/C [28]: 54.2%; viability, T/C [29]: 22.1%; viability, T/C [30]: 0.52%; viability, T/C [35]: 67.3%; viability, T/C [36]: 50.6%; viability, T/C [37]: 44.8%; viability, T/C [38]: 40.5%; viability, T/C [39]: 12.1%; viability, T/C [40]: 0.37%; viability, T/C [41]: 57.9%"
CCNC(=O)CC1N=C(c2ccc(Cl)cc2)c2cc(OC)ccc2-n2c(C)nnc21 (configuration not stated) + CNCc1ccccc1-c1csc(C(C)Nc2nc(C)nc3cc(OC)c(OC)cc23)c1,1390,478,382,< 31.6,88,76.8,59,55.8,43.4,69.5,69.6,53.4,41,36.3,77.6,64,52.6,40.3,33.1,1.88,"IC50 [31]: < 31.6 nM; viability, T/C [32]: 34%; viability, T/C [33]: 29.8%; viability, T/C [34]: 28%; viability, T/C [27]: 1.54%; viability, T/C [28]: 0.18%; viability, T/C [29]: 1.98%; viability, T/C [30]: 0.12%; viability, T/C [35]: 0.21%; viability, T/C [36]: 1.35%; viability, T/C [37]: 1.7%; viability, T/C [38]: 0.26%; viability, T/C [39]: 0.21%; viability, T/C [40]: 0.2%; viability, T/C [41]: 0.28%"
CC(C)NCC(C(=O)N1CCN(c2ncnc3c2C(C)CC3O)CC1)c1ccc(Cl)cc1 (configuration not stated) + C=CC(=O)N1CCN(c2nc(OCC3CCCN3C)nc3c2CCN(c2cccc4cccc(C)c24)C3)CC1CC#N,< 31.6,< 31.6,< 31.6,< 31.6,48.7,32.4,22.1,15.7,12.7,42.5,29.8,18.3,13.5,12.3,34.5,25.2,15.1,12.6,9.14,0.26,"IC50 [1]: 66.9 nM; viability, T/C [6]: 59.5%; viability, T/C [7]: 44.3%; viability, T/C [8]: 32.8%; viability, T/C [9]: 22.8%; viability, T/C [10]: 15.5%; viability, T/C (second compound 0.0316 µM, first compound 10 µM): 9.69%; viability, T/C [32]: 11.4%; viability, T/C [33]: 7.28%; viability, T/C [34]: 6.92%; viability, T/C [27]: 0.41%; viability, T/C [28]: 0.51%; viability, T/C [29]: 0.15%; viability, T/C [30]: 0.14%; viability, T/C [35]: 0.21%"
